Consider 12 substances from patent US11684675B2, “Dimeric collagen hybridizing peptides and methods of using” (University of Utah Research Foundation, priority 2015, dated 2023).

Non-standard residues stand in square brackets, D forms with d. No end group written: not given here. Hyp = O=C(O)[C@@H]1C[C@@H](O)CN1; CF = carboxyfluorescein label

A short description of series [1]: Triple helix melting point (Tm) by circular dichroism at 225 nm. Format: physicochemical. The settings on record: triple helix melting. Here is the method: FIGS. 5A, 5B, 5C, and 5D show the thermal denaturation of fully assembled CHPs and subsequent cooling to initial temperature. Samples were heated at 1° C./min from their initial temperature final temperature of 90° C. Sample was then cooled at 1° C./min to the starting temperature. (A) Thermal denaturation and partial reassembly of CHP CF-6d (150 μM) monitored at 225 nm. Sample was measured from 4° C. to 90° C. (B) Thermal denaturation and partial reassembly of CHP […] (75 μM, corresponding to 150 μM strand concentration) monitored at 225 nm. Sample was measured from 4° C. to 90° C. (C) Thermal denaturation and partial reassembly of CHP CF-9 (150 μM) monitored at 225 nm. Sample was measured from 10° C. to 90° C. (D) Thermal denaturation and partial reassembly of CHP CF-9d (75 μM, corresponding to 150 μM strand concentration) monitored at 225 nm. Sample was measured from 10° C. to 90° C.
FIGS. 11A and 11B show the First Derivative of mean residue ellipticity (MRE) at 225 nm in CD. […] There is no significant change in melting point between the monomeric and dimeric forms of the same peptide.
Circular Dichroism: Circular Dichroism (CD) was measured for all peptides at 225 nm. Melting curves were taken on peptides between 10 and 80° C. at a heating rate of 0.5° C./min, with pauses at each 1° C. Refolding experiments were performed after peptide solutions were incubated at 4° C. for at least 12 hours. Concentrations were normalized to strand concentration.

For series [2], the system named is crosslinked gelatin films. Nature of the series: Binding of CF-labelled CHPs to crosslinked gelatin films at 37° C. with and without preheating. Set-up: species or system porcine. Here is the method:
FIGS. 3A and 3B show the affinity of CHPs to gelatin films as monitored by fluorescence of conjugated CF fluorophore (492 ex, 533 em). (A) Fluorescence of CHPs bound to crosslinked gelatin after incubation at 37° C. overnight with no workup. (B) Fluorescence of CHPs remaining in crosslinked gelatin after incubation at 37° C. overnight without preheating, followed by washing with 1×PBS at 37° C. (20 h).
(§1) (A) Fraction of peptide remaining in a crosslinked gelatin film after 17 h at 25° C. (10 total washes). Values are normalized to fluorescence remaining in wells after 6 washes at 4° C. (>95% removal of CHPs 9r, 6r, and 5r). All washes performed in 1×PBS. (B) CHPs (15 μM) premixed into 10% porcine gelatin and preheated to 80° C. (10 min) before being added to a 96 well plate. Excess CHP-gelatin mixture was removed, then the premix was incubated at 4° C. for 2 hours. Wells were washed at 4° C., 5 times (>95% removal of CHPs 9r, 6r, and 5r). Wells were then washed for 2 hours (6 washes total) at 25° C. to monitor CHP remaining in the well. (C) Fluorescence of CHPs remaining in crosslinked gelatin after incubation at 37° C. overnight without preheating, followed by washing with 1×PBS at 37° C. (20 h). (D) Fluorescence of CHPs remaining in crosslinked gelatin after incubation at 37° C. overnight (80° C. preheating, 10 min), followed by washing with 1×PBS at 37° C. (20 h).
Dimeric CHPs were assessed for their ability to bind to collagen strands in crosslinked gelatin films. CHP solutions (20 μM in PBS) were added directly to the crosslinked gelatin films. For heated experiments, CHPs were preheated to 80° C. for 10 minutes before addition. Peptides were allowed to fully equilibrate with the gel at 37° C. overnight before being exposed to repeated washes (4×, PBS) at 37° C. to fully remove any non-specifically bound peptide and to determine binding level at body temperature. To measure retention, peptides were bound as previously described, but were subsequently washed with PBS 37° C. (5×1 h, 1×12 h) to measure retention within the gelatin films. […] Additionally, after a period of 20 hours, higher level of the dimeric CHP remained in the gelatin compared to the monomeric CHP.
A major limitation of the use of CHP in vivo, is the requirement of the triple helix to be fully disassembled before being injected. […] For this test, peptide solutions were allowed to warm to room temperature before being added (50 μL, 20 μM) to previously prepared crosslinked gelatin films. Solutions were then incubated at 37° C. overnight before removing the solution. Wells were washed at 37° C. with PBS (20 h) to determine binding. Preheated samples were prepared and incubated in the same way, but with preheating (80° C., 10 min) before being added to the crosslinked gelatin wells.

Series [3] has as its system crosslinked gelatin films. In words: Retention of CF-labelled CHPs in crosslinked gelatin films (bound at 4° C., washed at 25° C./r.t.). Type of series: binding, porcine. The settings on record: for retention / affinity in gelatin films: 20 μM, preheated 80° C., bound at 4° C., washed at r.t. with PBS, FIG. 6A; for retention in crosslinked gelatin films: Example 3 retention studies. As to the method:
as §1
Binding to Gelatin films. Peptide solutions (20 μM in PBS) were preheated to 80° C. for 10 minutes before being added directly to the crosslinked gelatin films. Peptides were allowed to fully equilibrate with the gel at 4° C. overnight before being exposed to repeated washes (4×30 min) at 4° to fully remove any non-specifically bound peptide. Gelatin wells were then washed at r.t. with PBS (5×1 h, lx 12 h) to measure retention within the gelatin films. […] To eliminate the possibility of these peptides merely becoming physically entrapped within the gelatin after forming triple helix or forming triple helix before binding, binding affinity was verified by producing a premix of the CHPs and Gelatin to eliminated diffusion-limited binding before washing the wells in a similar manner.
Fluorescence Binding: CHP binding to gelatin was monitored by conjugating a fluorescent Carboxyfluorescein (CF) molecule to the N-terminus of each peptide via standard SPPS. Solutions of the fluorescent peptides were heated to 80° C. for 5 min before injecting 50 μL onto a pre-prepared EDC-crosslinked thin gelatin film in a 96 well plate. Peptides incubated overnight at 4° C., then washed with repeated rounds of 4° C. 1×PBS followed by 25° C. 1×PBS.

Take (GPO)5 [compound 5, reference compound]: in series [1] (Table 2), the “Tm (° C.)” value is 27 (SEQ ID NO: 67) ° C. Besides, the “binding to gelatin wells at 37° C. without preheating” value in series [2] (20 μM, 37° C. overnight, PBS wash 20 h, FIG. 6C) is on record as “do not have a strong enough affinity to the gelatin to bind effectively at physiologic temperature”.

On to (GPO)6-G3K^Biotin [b-6], for which, in series [1] (Table 2), the “Tm (° C.)” value is listed as 36 (SEQ ID NO: 64) ° C.

Regarding (GPO)9-G3K^Biotin [b-9], in series [1] (Table 2), the “Tm (° C.)” value was 68 (SEQ ID NO: 61) ° C.

As to “CF-G3-(GPO5) (GGGGPPGPPGPPGPPGPP; carboxyfluorescein label; collagen hybridizing peptide; (6)..(6) Proline is hydroxyproline; (9)..(9) Proline is hydroxyproline; (12)..(12) Proline is hydroxyproline; (15)..(15) Proline is hydroxyproline; (18)..(18) Proline is hydroxyproline) [CF-5, reference compound]”, the “Tm (° C.)” value in series [1] (Table 2) is listed as 28 (SEQ ID NO: 69) ° C. Further, the “retention / affinity in gelatin films” value in series [3] was “almost entirely washed out of the gelatin films”.

On to “CF-G3-(GPO6) (GGGGPPGPPGPPGPPGPPGPP; carboxyfluorescein label; collagen hybridizing peptide; (6)..(6) Proline is hydroxyproline; (9)..(9) Proline is hydroxyproline; (12)..(12) Proline is hydroxyproline; (15)..(15) Proline is hydroxyproline; (18)..(18) Proline is hydroxyproline; (21)..(21) Proline is hydroxyproline) [CF-6]”, for which the “Tm (° C.)” value in series [1] (Table 1) and in series [1] (Table 2) was 37 (SEQ ID NO: 60) ° C throughout. In series [3], the “retention / affinity in gelatin films” value was “almost entirely washed out of the gelatin films”.

As to CF-G3-(GPO9) [CF-9], the “Tm (° C.)” value in series [1] (Table 1) and in series [1] (Table 2) was 69 (SEQ ID NO: 57) ° C in each case. In series [3], the “retention in crosslinked gelatin films” value came out at 58%.

On to [(CF-Ahx-GPO)9G3)2KG [CF-9d], for which the “Tm (° C.)” value in series [1] (Table 1) was 73 (SEQ ID NO: 55 °C; in series [1] (Table 2), 73 (SEQ ID NO: 55 w/label) ° C.

Take “[(CF-G3GPO)5G3)2KG ({CF}-GGGGP[Hyp]GP[Hyp]GP[Hyp]GP[Hyp]GP[Hyp]GGGKGGG[Hyp]PG[Hyp]PG[Hyp]PG[Hyp]PG[Hyp]PGGGG; not fully specified (C-terminus); also: lysine-branched dimer: K22 is the branch point, second arm (23-43) is written reversed, its N-terminus at position 43 carries CF) [CF-5d]”: the “Tm (° C.)” value in series [1] (Table 2) is reported as 28 (SEQ ID NO: 70) ° C. Moreover, the “retention / affinity in gelatin films” value in series [3] is recorded as “higher affinity to the gelatin films than CF-6”.

[(CF-G3GPO)6G3)2KG [CF-6d]: the “Tm (° C.)” value in series [1] (Table 1) and in series [1] (Table 2) was 50 (SEQ ID NO: 63) ° C each time. Moreover, in series [3], the “retention / affinity in gelatin films” value is “comparable affinity to that of the GPO9 monomer (CF-9) and GPO9 dimer (CF-9d)”. Further, the “retention in crosslinked gelatin films” value in series [3] amounted to 66%. In series [2] (37° C., non-preheated, vs currently utilized CHP, FIG. 17), the “more peptide remaining after 20 hours of wash” value came to 50%. In addition, in series [2] (non-preheated, vs currently utilized CHP, FIG. 17), the “higher initial binding to the gelatin substrate” value is 350%.

Take “[(GPO)5G3)2KG (GP[Hyp]GP[Hyp]GP[Hyp]GP[Hyp]GP[Hyp]GGGKGGG[Hyp]PG[Hyp]PG[Hyp]PG[Hyp]PG[Hyp]PG; not fully specified (C-terminus); also: lysine-branched dimer: K19 is branch point carrying two arms and a third (C-terminal) Gly, residues 20-37 are the second arm written in reverse order) [5d]”: in series [1] (Table 2), the “Tm (° C.)” value is given as 27 (SEQ ID NO: 68) ° C.

In the case of [(GPO)6G3)2KG3K^Biotin [b-6d], in series [1] (Table 2), the “Tm (° C.)” value was 37 (SEQ ID NO: 65) ° C.

As for [(GPO)9G3)2KG3K^Biotin [b-9d], in series [1] (Table 2), the “Tm (° C.)” value is listed as 68 (SEQ ID NO: 62) ° C.
